Data reported in paper PMC11819893, “Isolation and Bioassay of Linear Veraguamides from a Marine Cyanobacterium (Okeania sp.)” (Molecules, 2025).
Numbered stars: 1 amine (or outer) side, 2 acyl side, 3 side chain; on linkers, the order of the positions; unused ones are H or OH. Square brackets hold non-standard residues; d marks the D form. Peptide text beside a SMILES is read from it. * marks the point of attachment. NMeI = CC[CH](C)[CH](NC)C(=O)O; X2 = CCC(C)C(O[*:1])C(=O)[*:2]; NMeV = CN[CH](C(=O)O)C(C)C; X1 = C#CCCCC(O)C(C)C(=O)*

Assays:
MDA-MB-231 cells = test: MTT cytotoxicity assay in MDA-MB-231 (TNBC) cells; type: cell-based, human; conditions: for cytotoxicity / effect on viability in words: TNBC (MDA-MB-231) cells, MTT
Procedure: (§1) The human triple-negative breast cancer cell line MDA-MB-231 was obtained from ATCC and was maintained in DMEM:F-12 (1:1) (Life Technologies, Carlsbad, CA, USA), 10% Fetal Bovine Serum (Atlanta Biologicals, Atlanta, GA, USA), and 1% Penicillin/Streptomycin (Sigma, St. Louis, MO, USA). The estrogen-positive MCF-7 cell line was also obtained from ATCC and was maintained in 1640 RPMI media (Life technologies), 10% FBS, and 1% Penicillin/Streptomycin. HEK-293 cells were also obtained from ATCC and maintained in Dulbecco’s Modification of Eagle’s Medium (DMEM), 10% Fetal Bovine Serum (FBS), and 1% Penicillin/Streptomycin (Pen/Strep).
(§2) Two rounds of toxicity experimentation were completed. First, MDA-MB-231 and MCF-7 cells were plated at a density of 5 × 10^3 cells per well in a 96-well plate. Cells were allowed to attach overnight. The cells were treated with depsipeptides or vehicle for 72 h with 5% FBS stimulation. DMSO was used as a vehicle control. After treatment, 10 μ L MTT (Sigma) was added to each well (0.5 mg/mL final concentration), and the plates were incubated for 3 h (5% CO2 and 37 °C). The medium was removed and the MTT-formazan crystals were dissolved with 100 μ L DMSO per well. The absorbance was measured at 570 nm with a VICTOR^3 1420 multilabel counter (Perkin Elmer, Springfield, IL, USA). Three wells were analyzed for each condition, and wells containing medium-MTT only (no cells) and medium-MTT (DMSO + 5% FBS) were used as controls. Results were normalized to the DMSO + 5% FBS group.

MCF-7 cells = test: MTT cytotoxicity assay in MCF-7 (estrogen positive) cells; type: cell-based, human; conditions: ER-positive MCF-7 cells, 72 h, listed as Veraguamide O
Procedure: as §1
as §2, with “The medium was removed and the MTT-formazan crystals were dissolved with 100 μ L DMSO per well.” left out, “Results were normalized to the DMSO + 5% FBS group.” left out

For C#CCCCC(O)C(C)C(=O)NC(C(=O)N(C)C(C(=O)OC(C(=O)N1CCCC1C(=O)N(C)C(C(=O)O)C(C)CC)C(C)CC)C(C)C)C(C)CC (stereo not drawn) [Veraguamide O (1)] (X1-I[NMeV][X2]P[NMeI]-OH; configuration not given here), the “cell death observed microscopically” value (MDA-MB-231 cells; MDA-MB-231 (TNBC), 10 μM, microscopy) was “appeared to induce cell death”, the viability (MDA-MB-231 cells; MDA-MB-231, MTT, 72 h, 0.14 µM, % of DMSO + 5% FBS control) was 86% and the “selectivity for TNBC over estrogen-positive cells, in words” value (MDA-MB-231 cells; MDA-MB-231 compared to MCF-7, MTT) was “selective inhibitory effects against TNBC (MDA-MB-231) cells compared to estrogen-positive (MCF-7) breast cancer cells”. The “cytotoxicity / effect on viability in words” value (“cytotoxicity / effect” below) (MDA-MB-231 cells; 72 h) was “decreased viability in MDA-MB-231 cells in a concentration-dependent manner”, the “cytotoxicity / effect” value (MDA-MB-231 cells; 72 h, listed as veraguamide O) was “similar, albeit minor, levels of toxicity” and the “cytotoxicity / effect” value (MCF-7 cells) was “no cytotoxicity”.
